Literature values in patent US20250144314A1, “VITAMIN K1 INJECTION DEVICE KIT” (ORBICULAR PHARMACEUTICAL TECHNOLOGIES PRIVATE LIMITED, priority 2022, published 2025).

Conditions: estimate

absorbed vitamin K excreted from the body: over 60%
SMILES: CC1=C(C/C=C(\C)CCC[C@H](C)CCC[C@H](C)CCCC(C)C)C(=O)c2ccccc2C1=O [vitamin K, Phytonadione]
